Results taken from US20220197161A1, “ELECTROPHOTOGRAPHIC PHOTOCONDUCTOR, METHOD OF MANUFACTURING THE SAME, AND ELECTROPHOTOGRAPHIC EQUIPMENT” (FUJI ELECTRIC CO., LTD., priority 2020, published 2022).

Test: solubility SETM (THF): mass of tetrahydrofuran required to dissolve 1 g of the azoquinone derivative
Type: physicochemical
Details: mass (g) of tetrahydrofuran required to dissolve 1 g of the azoquinone derivative
Text: The solubility SETM (THF) of the azoquinone derivative having a structure represented by the general formula (ET1) (the mass (g) of tetrahydrofuran required to dissolve 1 g of the azoquinone derivative) preferably satisfies the following inequality:
For the azoquinone derivative having a structure represented by the general formula (ET1) in a preferred embodiment, the solubility SETM (THF), as represented by the mass (g) of tetrahydrofuran required to dissolve 1 g of the electron transport materials), of the electron transport materials also satisfies the following inequality:
The solubility SETM (THF) of the azoquinone derivative, as represented by the mass (g) of tetrahydrofuran required to dissolve 1 g of the azoquinone derivative having a structure represented by the above structural formula (ET1-4)), was 1 (g).

solubility SETM (THF)	Structure (SMILES)
≤ 1 g	CC(C)(C)C1=CC(=CN=Nc2c(Cl)cccc2Cl)C=C(C(C)(C)C)C1=O [ET1-3]
1 g	CC(C)(C)C1=CC(=CN=Nc2cc(Cl)ccc2Cl)C=C(C(C)(C)C)C1=O [ET1-4]
1 g	CC(C)(C)C1=CC(=CN=Nc2c(Cl)cc(Cl)cc2Cl)C=C(C(C)(C)C)C1=O [ET1-5]
3 g	CC(C)(C)C1=CC(=CN=Nc2ccc(Cl)cc2)C=C(C(C)(C)C)C1=O [ET-1]
15 g	CC(C)(C)C1=CC(=CN=Nc2ccc(F)cc2F)C=C(C(C)(C)C)C1=O [ET-2]
22 g	CC(C)(C)C1=CC(=CN=Nc2c(F)c(F)c(F)c(F)c2F)C=C(C(C)(C)C)C1=O [ET-3]
